Calls of active or inactive are those of the source. For most assays here, no stated cut-off is given here; in the data, actives have a measured EC50 and inactives only a lower limit.
target: Cytochrome P450 2C9 (Homo sapiens, UniProt P11712); conditions: not given
Sequence (P11712 whole entry): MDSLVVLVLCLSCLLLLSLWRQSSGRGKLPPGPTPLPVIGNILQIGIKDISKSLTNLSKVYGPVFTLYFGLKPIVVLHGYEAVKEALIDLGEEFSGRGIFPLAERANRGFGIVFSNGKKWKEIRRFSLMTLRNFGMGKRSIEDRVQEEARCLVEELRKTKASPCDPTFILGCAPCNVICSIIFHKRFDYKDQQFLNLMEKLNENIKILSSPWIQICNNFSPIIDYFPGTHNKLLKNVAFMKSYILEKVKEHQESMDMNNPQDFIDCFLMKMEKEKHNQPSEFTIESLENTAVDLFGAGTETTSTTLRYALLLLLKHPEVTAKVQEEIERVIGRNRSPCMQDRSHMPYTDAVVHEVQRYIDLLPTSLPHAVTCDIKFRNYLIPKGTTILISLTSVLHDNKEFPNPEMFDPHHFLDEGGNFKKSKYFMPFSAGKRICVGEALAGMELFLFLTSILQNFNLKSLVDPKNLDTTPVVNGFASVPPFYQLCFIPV

SMILES	AC50
COc1ccc(-n2cnnc2)cc1	0.0282 µM (inconclusive)
O=C(Oc1ccccc1N1C(=O)C2CCCCC2C1=O)c1ccccc1 (stereo not drawn)	11.2 µM (inconclusive)
COC(=O)[C@@H]1CC[C@H](C)[C@@H](c2ccc(C)cc2)N1C(=O)c1ccc(/C=N\O[C@@H](C)c2cn([C@H]3COC[C@H]3O)nn2)cc1	3.16 µM (inconclusive)
CCC/C=C(\CCC)C(NC(=O)c1cccs1)c1ccc(C(F)(F)F)cc1 (stereo not drawn)	0.501 µM (inconclusive)

target: Cytochrome P450 3A4 (Homo sapiens, UniProt P08684); conditions: not given;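 further: CYP3A4 tested as one member of a cytochrome P450 panel screen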
Sequence (P08684 whole entry): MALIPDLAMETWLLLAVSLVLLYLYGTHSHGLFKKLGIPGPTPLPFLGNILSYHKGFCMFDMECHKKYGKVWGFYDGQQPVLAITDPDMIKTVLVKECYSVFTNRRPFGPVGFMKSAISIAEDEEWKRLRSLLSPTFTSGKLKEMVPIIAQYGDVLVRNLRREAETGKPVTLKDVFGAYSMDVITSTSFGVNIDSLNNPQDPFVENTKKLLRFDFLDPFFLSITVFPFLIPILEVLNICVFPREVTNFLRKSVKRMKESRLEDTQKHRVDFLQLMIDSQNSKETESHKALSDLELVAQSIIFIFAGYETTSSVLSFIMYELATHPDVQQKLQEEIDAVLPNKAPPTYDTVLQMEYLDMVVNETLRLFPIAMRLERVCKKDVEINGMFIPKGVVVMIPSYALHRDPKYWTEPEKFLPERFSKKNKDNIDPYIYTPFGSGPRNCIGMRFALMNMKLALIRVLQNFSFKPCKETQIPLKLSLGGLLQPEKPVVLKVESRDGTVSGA

SMILES	AC50
Brc1ccc([C@H]2CN3CCSC3=N2)cc1	25.1 µM (inconclusive)
CCN(CC)Cc1nc(O)c2c(n1)-c1ccccc1CC21CCCC1	14.1 µM (inconclusive)
O=C(CN1CCN(c2ncccn2)CC1)NCCC1=CCCCC1	17.8 µM (inconclusive)
CC(Cc1ccccc1)N/C=C1\CC(=O)NC1=O (stereo not drawn)	3.98 µM (inconclusive)
C/C(=C\C1CCCCC1)C(NC(=O)c1ccc(C(F)(F)F)cc1)c1ccc(-c2ccccc2)cc1 (stereo not drawn)	12.6 µM (inconclusive)
COC(=O)[C@@H]1CC[C@H](C)[C@@H](c2ccc(C)cc2)N1C(=O)c1ccc(/C=N\O[C@@H](C)c2cn([C@H]3COC[C@H]3O)nn2)cc1	3.16 µM (inconclusive)
Cc1ccc(-c2cnc(NC(=O)CCC(=O)N3CCCCC3)n2C)cc1	39.8 µM (inconclusive)
CO[C@@H]1/C=C\CC(=O)N[C@@H](C)C(=O)OC[C@@H](OC)[C@H](C)CCCC(=O)OC[C@H]1C	3.16 µM (inconclusive)

system: Streptococcus; assay: GAS UMAA2166 growth inhibition – luminescence, BacTiterGlo, counter-screen for streptokinase expression inhibitor project, dose response (AID 1915); format: functional, organism-based; conditions: not given;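 further: potency for reduction of bacterial viability or growth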

SMILES	EC50
O=C(CSc1nnc(CNC(=O)c2c(F)cccc2F)o1)NCc1ccccc1	> 150 µM (not active)
O=C(Cc1ccccc1)N/N=C/c1ccccn1	> 150 µM (not active)
Clc1ccc(SCc2cc(Cl)nc(-c3ccccc3)n2)cc1	> 150 µM (not active)
CC1CCc2c(sc3nc(C4CC4)nc(N4CCN(C(=O)c5ccco5)CC4)c23)C1 (stereo not drawn)	9.93 µM (active)
Cc1nnc(SCC2=C(C(=O)O)N3C(=O)C(NC(=O)c4cccc(F)c4F)C3SC2)s1 (stereo not drawn)	1.01 µM (active)
CC(C)=CCc1c(O)cc2c(c1O)C(=O)CC(c1ccc(O)cc1)O2 (stereo not drawn)	4 µM (active)

system: not listed separately; assay: NIH3T3 cell viability loss – ATP luminescence, mouse fibroblasts, counter-screen, dose response (AID 2010); format: functional, cell-based; conditions: not given;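 further: cells exposed to compound for about 90 hours before reading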

SMILES	EC50
Nc1sc(-c2ccccc2)n[n+]1Cc1cccc2cccnc12	> 60 µM (not active)

system: not listed separately; assay: Luminescence Cell-Based Dose Response HTS to Identify Inhibitors of 5'UTR Stem-Loop Driven Prion Protein mRNA Translation in H4 Neuroglioblastoma Cells. [Related pubchem assays: 1827 (Project Summary), 1813 (Primary HTS)]; format: functional; conditions: not given

SMILES	EC50
Nc1sc(-c2ccccc2)n[n+]1Cc1cccc2cccnc12	> 120 µM (not active)
COc1ccc(/C(O)=C/C2=NCCc3cc(OC)c(OC)cc32)cc1OC	> 120 µM (not active)
Cc1cc(=O)n2nc(N3CCCC(C(=O)N4CCc5ccccc54)C3)sc2n1 (stereo not drawn)	> 120 µM (not active)
CCN(CC)c1ccc(NC(=O)COc2ccc(C#N)cc2)cc1S(=O)(=O)Nc1ccc(OC)cc1	> 120 µM (not active)

target: Cytochrome P450 2D6 (Homo sapiens, UniProt P10635); conditions: not given;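 further: CYP2D6 member of a cytochrome P450 panel assay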
Sequence (P10635 whole entry): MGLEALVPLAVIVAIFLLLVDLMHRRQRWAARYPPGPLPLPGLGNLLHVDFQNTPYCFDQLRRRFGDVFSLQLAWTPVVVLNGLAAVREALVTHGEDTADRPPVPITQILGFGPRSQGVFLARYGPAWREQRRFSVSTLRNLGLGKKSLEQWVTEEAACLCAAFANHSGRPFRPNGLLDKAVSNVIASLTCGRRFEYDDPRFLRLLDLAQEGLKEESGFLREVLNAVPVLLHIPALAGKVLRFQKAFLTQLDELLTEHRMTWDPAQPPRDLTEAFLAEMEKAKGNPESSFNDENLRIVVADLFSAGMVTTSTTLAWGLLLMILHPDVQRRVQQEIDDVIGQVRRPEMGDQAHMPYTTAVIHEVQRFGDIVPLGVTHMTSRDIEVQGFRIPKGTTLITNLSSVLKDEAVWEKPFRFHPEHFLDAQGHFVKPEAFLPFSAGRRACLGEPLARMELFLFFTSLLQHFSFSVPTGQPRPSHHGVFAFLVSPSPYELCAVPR

SMILES	AC50
Cc1ccc(-c2cnc(NC(=O)CCC(=O)N3CCCCC3)n2C)cc1	14.1 µM (inconclusive)

system: not listed separately; assay: Luminescence Cell-Based Dose Retest to Confirm Inhibitors of Cancer Stem Cells. [Related pubchem assays (depositor defined):AID2717, AID2721]; format: functional; conditions: Homo sapiens

SMILES	AC50
CC(C)=CCc1c(O)cc2c(c1O)C(=O)CC(c1ccc(O)cc1)O2 (stereo not drawn)	3.72 µM (active)

target: T1, Cytochrome P450 1A2 (Homo sapiens, UniProt P05177); conditions: not given;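 further: PubChem cytochrome P450 panel assay, CYP1A2 panel member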
T1 sequence (P05177 whole entry): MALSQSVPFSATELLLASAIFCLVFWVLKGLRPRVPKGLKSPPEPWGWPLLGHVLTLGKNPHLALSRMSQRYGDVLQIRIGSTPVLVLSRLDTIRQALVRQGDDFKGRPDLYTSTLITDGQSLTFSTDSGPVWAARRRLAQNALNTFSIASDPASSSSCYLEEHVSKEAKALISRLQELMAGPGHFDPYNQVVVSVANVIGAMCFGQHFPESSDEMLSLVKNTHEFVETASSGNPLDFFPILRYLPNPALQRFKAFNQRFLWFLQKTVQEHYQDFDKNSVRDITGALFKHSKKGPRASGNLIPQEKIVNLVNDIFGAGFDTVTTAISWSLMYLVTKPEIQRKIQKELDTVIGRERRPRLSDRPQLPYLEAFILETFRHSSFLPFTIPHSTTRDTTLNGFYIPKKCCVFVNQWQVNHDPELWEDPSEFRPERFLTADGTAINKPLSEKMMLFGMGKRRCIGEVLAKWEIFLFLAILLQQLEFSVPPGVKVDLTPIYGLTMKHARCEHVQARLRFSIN

SMILES	AC50
COc1ccc(-n2cnnc2)cc1	14.1 µM (inconclusive)
Brc1ccc([C@H]2CN3CCSC3=N2)cc1	15.8 µM (inconclusive)
O=C(Oc1ccccc1N1C(=O)C2CCCCC2C1=O)c1ccccc1 (stereo not drawn)	15.8 µM (inconclusive)
CCC/C=C(\CCC)C(NC(=O)c1cccs1)c1ccc(C(F)(F)F)cc1 (stereo not drawn)	3.16 µM (inconclusive)
Cc1ccc(-c2cnc(NC(=O)CCC(=O)N3CCCCC3)n2C)cc1	25.1 µM (inconclusive)

target: T2, Streptokinase A (Streptococcus pyogenes serotype M1, UniProt P10520); assay: viability-normalized secreted streptokinase activity reduction – plasminogen activation absorbance, OD405, dose response (AID 1914); format: functional, Streptococcus pyogenes M1 GAS; conditions: not given;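 further: secreted streptokinase activity via plasminogen activation per viability signal from cell pellet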
T2 sequence (P10520 whole entry): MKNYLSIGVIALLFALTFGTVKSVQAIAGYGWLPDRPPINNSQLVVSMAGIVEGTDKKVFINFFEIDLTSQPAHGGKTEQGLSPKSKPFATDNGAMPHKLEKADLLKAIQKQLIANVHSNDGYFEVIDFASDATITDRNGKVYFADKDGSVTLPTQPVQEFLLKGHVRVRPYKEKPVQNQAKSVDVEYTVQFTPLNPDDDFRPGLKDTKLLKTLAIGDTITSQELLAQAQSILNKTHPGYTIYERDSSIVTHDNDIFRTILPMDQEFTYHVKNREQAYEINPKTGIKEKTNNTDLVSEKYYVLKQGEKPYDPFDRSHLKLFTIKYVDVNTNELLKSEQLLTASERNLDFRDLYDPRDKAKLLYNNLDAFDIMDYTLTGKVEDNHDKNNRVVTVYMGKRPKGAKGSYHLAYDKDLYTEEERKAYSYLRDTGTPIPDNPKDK

SMILES	EC50
O=C(CSc1nnc(CNC(=O)c2c(F)cccc2F)o1)NCc1ccccc1	> 150 µM (not active)
O=C(Cc1ccccc1)N/N=C/c1ccccn1	> 150 µM (not active)
Clc1ccc(SCc2cc(Cl)nc(-c3ccccc3)n2)cc1	17 µM (active)
CC1CCc2c(sc3nc(C4CC4)nc(N4CCN(C(=O)c5ccco5)CC4)c23)C1 (stereo not drawn)	3.24 µM (active)
Cc1nnc(SCC2=C(C(=O)O)N3C(=O)C(NC(=O)c4cccc(F)c4F)C3SC2)s1 (stereo not drawn)	> 150 µM (not active)
CC(C)=CCc1c(O)cc2c(c1O)C(=O)CC(c1ccc(O)cc1)O2 (stereo not drawn)	> 150 µM (not active)

system: Streptococcus sp. 'group A'; assay: Streptococcus pyogenes SK(-)GAS viability under kanamycin – luminescence, BacTiterGlo, confirmation, counter-screen for streptokinase expression inhibitor project, dose response (AID 1900); format: functional, organism-based; conditions: not given

SMILES	EC50
O=C(CSc1nnc(CNC(=O)c2c(F)cccc2F)o1)NCc1ccccc1	> 150 µM (not active)
O=C(Cc1ccccc1)N/N=C/c1ccccn1	> 150 µM (not active)
Clc1ccc(SCc2cc(Cl)nc(-c3ccccc3)n2)cc1	> 150 µM (not active)
CC1CCc2c(sc3nc(C4CC4)nc(N4CCN(C(=O)c5ccco5)CC4)c23)C1 (stereo not drawn)	3.48 µM (active)
Cc1nnc(SCC2=C(C(=O)O)N3C(=O)C(NC(=O)c4cccc(F)c4F)C3SC2)s1 (stereo not drawn)	0.377 µM (active)
CC(C)=CCc1c(O)cc2c(c1O)C(=O)CC(c1ccc(O)cc1)O2 (stereo not drawn)	3.55 µM (active)

target: T3, Heat shock factor protein 1 (Mus musculus, UniProt P38532); assay: enhancement of HSF1-driven luciferase signal – cell-based, NIH3T3, luminescence, dose retest, confirmation (AID 435004); format: functional; conditions: not given;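 further: stress induced by proteasome inhibitor MG132 added 30 min after compound; luciferase reporter driven by HSF1 response element in NIH3T3 cells; actives raise luminescence as potentiators of the MG132 stress response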
T3 sequence (P38532 whole entry): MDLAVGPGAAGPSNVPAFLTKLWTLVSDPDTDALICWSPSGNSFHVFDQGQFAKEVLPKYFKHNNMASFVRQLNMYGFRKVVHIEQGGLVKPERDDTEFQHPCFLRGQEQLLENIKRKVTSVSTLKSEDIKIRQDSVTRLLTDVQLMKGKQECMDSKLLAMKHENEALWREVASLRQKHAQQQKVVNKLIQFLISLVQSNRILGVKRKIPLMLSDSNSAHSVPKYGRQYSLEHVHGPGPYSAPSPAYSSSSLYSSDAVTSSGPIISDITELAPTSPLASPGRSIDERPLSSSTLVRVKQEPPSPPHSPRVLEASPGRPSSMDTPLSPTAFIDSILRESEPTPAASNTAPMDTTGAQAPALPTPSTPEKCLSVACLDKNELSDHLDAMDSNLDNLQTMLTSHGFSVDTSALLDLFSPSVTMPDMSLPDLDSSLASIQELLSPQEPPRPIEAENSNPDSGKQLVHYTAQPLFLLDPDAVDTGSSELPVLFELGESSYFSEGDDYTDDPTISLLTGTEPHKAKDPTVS

SMILES	EC50
Cc1nnc(SCC2=C(C(=O)O)N3C(=O)C(NC(=O)c4cccc(F)c4F)C3SC2)s1 (stereo not drawn)	246 µM (active)

system: not listed separately; assay: alpha-synuclein stem-loop luciferase translation blockers – H4 neuroglioma cells, luminescence, confirmation (AID 1988); format: functional, cell-based; conditions: not given

SMILES	EC50
Nc1sc(-c2ccccc2)n[n+]1Cc1cccc2cccnc12	> 120 µM (not active)
COc1ccc(/C(O)=C/C2=NCCc3cc(OC)c(OC)cc32)cc1OC	84.3 µM (active)
Cc1cc(=O)n2nc(N3CCCC(C(=O)N4CCc5ccccc54)C3)sc2n1 (stereo not drawn)	34.1 µM (active)
CCN(CC)c1ccc(NC(=O)COc2ccc(C#N)cc2)cc1S(=O)(=O)Nc1ccc(OC)cc1	92.7 µM (active)

system: not listed separately; assay: luciferase reporter signal suppression in cells – H4 neuroglioma cells, luminescence, dose response (AID 1990); format: functional, cell-based; conditions: not given

SMILES	EC50
Nc1sc(-c2ccccc2)n[n+]1Cc1cccc2cccnc12	> 120 µM (not active)
COc1ccc(/C(O)=C/C2=NCCc3cc(OC)c(OC)cc32)cc1OC	> 120 µM (not active)
Cc1cc(=O)n2nc(N3CCCC(C(=O)N4CCc5ccccc54)C3)sc2n1 (stereo not drawn)	22.1 µM (active)
CCN(CC)c1ccc(NC(=O)COc2ccc(C#N)cc2)cc1S(=O)(=O)Nc1ccc(OC)cc1	20.6 µM (active)

system: not listed separately; assay: Trypanosoma cruzi growth suppression in host cells – NIH3T3 host cells, beta-gal luminescence, confirmation (AID 2044); format: functional, cell-based; conditions: not given;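 further: intracellular parasites grown in NIH/3T3 mouse fibroblasts as host cells; luminescent beta-galactosidase reporter signal from transgenic T. cruzi replicating inside host cells; inhibitors lower the luminescence signal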

SMILES	EC50
Nc1sc(-c2ccccc2)n[n+]1Cc1cccc2cccnc12	2.77 µM (active)

system: INS1; assay: INS-1E survival protection against cytokine death – cell-based, luminescence, retest, dose response (AID 449756); format: functional; conditions: Rattus norvegicus;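 further: cell death triggered by IL-1 beta plus TNF-alpha plus IFN-gamma mixture; protective hits raise ATP signal compared with cytokine alone wells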

SMILES	AC50
CC1CCc2c(sc3nc(C4CC4)nc(N4CCN(C(=O)c5ccco5)CC4)c23)C1 (stereo not drawn)	4.18 µM (active)
